Values after ≈ are worked out from the molar mass of the structure shown.
Details: buffer; pH 7.4; 200.0 µM

Row | Compound | solubility kinetic [µg/mL]
1 | c1ccc(Oc2cccc(Oc3ccccc3)n2)cc1 | < 0.6
2 | CN(C)CCN(C(=O)c1ccc2ccccc2c1)c1nc2ccc(F)cc2s1.Cl | 30
3 | O=C(CN1C(=O)NC2NC(=O)NC21)N/N=C/c1ccccc1F (stereo not drawn) | > 48
4 | CCO/C(C)=C1/SC(=S)NC1=O | > 30.5
5 | O=C(NCCNC(=O)c1cnccn1)c1ccc(Cl)cc1 | > 45.7
6 | COc1ccc(C2C(C(C)=O)=C(O)C(=O)N2c2ccc(O)cc2)cc1 (stereo not drawn) | > 50.9
7 | Cc1cc2nc(-c3ccc(=O)[nH]c3)n(C)c2cc1C | 14.1 (≈ 55.7 µM)
8 | O=C(CN1C(=O)NC2(CCCCCC2)C1=O)NC1CC1 | > 41.9
9 | CSc1ccc(/C=C/C(=O)N2CCCN(C)CC2)cc1.Cl | 44.1
10 | COc1ccc(Nc2ncnc3sccc23)cc1OC | 36.9 (≈ 128 µM)
11 | O=C(COc1ccc(Cl)cc1)NCc1ccc(F)cc1 | 41.5 (≈ 141 µM)
12 | CCOc1ccc(Cl)cc1CNCCCSc1ncccn1 | 43 (≈ 127 µM)
13 | O=C(c1c[nH]c2ccccc12)C(F)(F)F | 20.2 (≈ 94.8 µM)
14 | Cc1ccc(C)c(-n2c(C)nc3ccccc3c2=O)c1 | > 39.6
15 | O=c1cc(O)c2ccccc2n1Cc1ccccc1F | > 40.4
16 | Cc1noc(/C=C/c2cccnc2)c1[N+](=O)[O-] | 33.7 (≈ 146 µM)
17 | Cn1c(N2CCCC2)nc2c1c(=O)[nH]c(=O)n2C | > 37.4
18 | CCC(C(=O)Nc1c(C)cc(C)cc1C)N1CCCCCC1 (stereo not drawn) | 41 (≈ 136 µM)
19 | Cn1c(=O)c(C(=O)c2ccccc2)c(O)c2ccccc21 | 38.8 (≈ 139 µM)
20 | CN(Cc1ccccc1)c1c([N+](=O)[O-])c(=O)n(C)c2ccccc12 | 2.7 (≈ 8.35 µM)
21 | Nc1ccc2nc(-c3ccccc3)cnc2c1 | 26.6 (≈ 120 µM)
22 | N#Cc1ccccc1COc1cccc2c1CCCC2O (stereo not drawn) | 2.1 (≈ 7.52 µM)
23 | O=C(Nc1ccccc1O)/C(=C\c1ccccc1)NC(=O)c1ccccc1 | 14.9 (≈ 41.6 µM)
24 | COc1cc(Cl)c(C)cc1NC(=O)CN(C)C1CCS(=O)(=O)C1 (stereo not drawn) | > 54.1

Row | Compound | solubility kinetic [µg/mL]
25 | CN=C(Nc1cccc(S(=O)(=O)N2CCOCC2)c1)c1ccccc1 | 17.2 (≈ 47.9 µM)
26 | O=C(O)CNS(=O)(=O)Cc1ccccc1 | 29 (≈ 126 µM)
27 | Cc1cccc(NCc2ccc([N+](=O)[O-])s2)c1 | 15.1 (≈ 60.8 µM)
28 | Cc1ccc(C23CC4CC(CC(CN)(C4)C2)C3)cc1.Cl | > 43.8
29 | O=C(/C=C/c1cccnc1)c1ccc(F)c(F)c1 | 27.8 (≈ 113 µM)
30 | COc1ccc(CNC(=O)c2ccc3ccccc3n2)cc1 | 18.4 (≈ 62.9 µM)
31 | CCC(C(=O)OC)n1cnc2scc(-c3ccc(C)cc3)c2c1=O (stereo not drawn) | 29.3 (≈ 85.6 µM)
32 | COc1ccc(CC2CC(=O)N(c3ccc(C)cc3)C2=O)cc1 (stereo not drawn) | 4.4 (≈ 14.2 µM)
33 | N#Cc1nc(-c2ccc([N+](=O)[O-])cc2)oc1N1CCCCC1 | 1.3 (≈ 4.36 µM)
34 | COc1ccc(C(=O)NC(C)CCc2ccccc2)c(O)c1 (stereo not drawn) | 15.2 (≈ 50.8 µM)
35 | CCCCC1C2C(=O)N(c3ccccc3)C(=O)C2ON1c1ccccc1 (stereo not drawn) | 49.1 (≈ 140 µM)
36 | COc1ccc(Cl)cc1N=Cc1c(O)c2ccccc2oc1=O | < 0.7
37 | COC(=O)CC1C(=O)NC2CCCCC2N1C(=O)CCl (stereo not drawn) | > 45.4
38 | CN(C(=O)c1cc(-c2ccc3c(c2)OCO3)on1)c1ccccc1 | 6.8 (≈ 21.1 µM)
39 | NS(=O)(=O)c1ccc(OC(=O)CNC(=O)OCc2ccccc2)cc1 | 34.3 (≈ 94.1 µM)
40 | Cc1cc(C(=O)Nc2ccc(F)cc2C)n(-c2ccccc2)n1 | > 46.4
41 | Cc1ccc(SCc2cn3c(C)cc(C)nc3n2)cc1 | > 42.5
42 | COc1cc(CCC(=O)OCC(=O)N2CC(=O)Nc3ccccc32)cc(OC)c1OC | > 64.3
43 | CCN1C(=O)N(c2ccc(C(C)=O)cc2)S(=O)(=O)c2ccccc21 | 47.6 (≈ 138 µM)
44 | O=C(NCc1ccco1)c1ccc2nccnc2c1 | > 38
45 | Cc1ccc(Nc2nc(N)c([N+](=O)[O-])c(NCc3ccccc3)n2)cc1 | 0.3 (≈ 0.856 µM)
46 | CCCOc1ccc(N2C(=O)CC(NCC#N)C2=O)cc1 (stereo not drawn) | 41 (≈ 143 µM)
47 | Cc1ccc(C(=O)Nc2ccc3c(c2)OCCO3)c(Cl)c1 | 4.3 (≈ 14.2 µM)
48 | CS(=O)(=O)N(CC(=O)Nc1c(F)cccc1F)Cc1ccccc1 | > 53.2

Row | Compound | solubility kinetic [µg/mL]
49 | COc1cc(/C=C/c2noc(-c3ccccc3O)n2)ccc1OC(C)=O | < 0.4
50 | COc1ccccc1CNC(=O)COC(=O)Cc1cccc(F)c1 | > 49.7
51 | Cc1[nH]c(=O)[nH]c(=O)c1S(=O)(=O)Nc1ccc(F)cc1F | > 47.6
52 | Cc1ccccc1NC(=O)NC1CCCCCCC1 | 1.5 (≈ 5.76 µM)
53 | CCOP(=O)(OCC)/C(=N/OC(=O)c1cccc([N+](=O)[O-])c1)C(N)=O | 55 (≈ 147 µM)
54 | COc1ccc(NS(=O)(=O)c2cccc(C(=O)OCC(=O)NC3CC3)c2)cc1 | 11.6 (≈ 28.7 µM)
55 | O=C(NCC1CCCO1)c1ccc(COc2ccccc2)o1 (stereo not drawn) | > 45.2
56 | Cc1cnc(=O)[nH]c1SCc1ccc([N+](=O)[O-])cc1 | 22.1 (≈ 79.7 µM)
57 | COc1ccc(N(C)C(=O)c2sc(Cl)nc2C)cc1 | 42.7 (≈ 144 µM)
58 | CNC(=O)c1cc(C(=O)c2ccccc2Br)c[nH]1 | > 46.1
59 | CSc1nc2c(c(=O)[nH]c(=O)n2C)n1Cc1ccccc1 | > 45.4
60 | Cc1cscc1NC(=O)/C=C/C(=O)O | 31.5 (≈ 149 µM)
61 | NC(=O)c1cc([N+](=O)[O-])ccc1NCCc1ccccc1 | < 0.2
62 | CCCCCCn1c(=O)[nH]c2c(c1=O)CCC2 | > 35.4
63 | COc1ccccc1COC(=O)CN1C(=O)NC2(CCCCC2C)C1=O (stereo not drawn) | > 54.1
64 | Brc1cccc(C2Nc3cccc4cccc(c34)N2)c1 | < 0.3
65 | Cc1ccc(NS(=O)(=O)c2cccs2)nc1 | > 38.1
66 | O=C(O)CNC(=S)N(Cc1ccccc1F)C1CCCCC1 | > 48.7
67 | Cc1cc(C)c2cc(C(=O)N3CCC(N4CCCCC4)CC3)[nH]c2c1 | > 50.9
68 | O=C(O)c1ccc(NCCC2=CCCCC2)c([N+](=O)[O-])c1 | 41.9 (≈ 144 µM)
69 | Cc1ccc(C)c(OCCC(=O)Nc2cc(S(=O)(=O)N3CCCCC3)ccc2C)c1 | 2.4 (≈ 5.57 µM)
70 | CCOC(=O)c1c(C)nc(C)c(C(=O)OCC)c1-c1cccc(N)c1 | 42.1 (≈ 123 µM)
71 | COc1ccc(-c2nc3n(c2C)Cc2ccccc2-3)cc1 | 16.3 (≈ 59 µM)
72 | COc1ccc(/C=C2\SC(=Nc3ccccc3OC)NC2=O)cc1 | 1.7 (≈ 4.99 µM)

Row | Compound | solubility kinetic [µg/mL]
73 | Cc1noc(C)c1C(=O)OCC(=O)C12CC3CC(CC(C3)C1)C2 | < 0.7
74 | C=CCc1ccccc1OCC(O)CNC1CCCC1.Cl (stereo not drawn) | > 46.8
75 | O=C(O)COCC(=O)NCc1csc2ccccc12 | 38.9 (≈ 139 µM)
76 | Cc1cc(C)c2c3c(sc2n1)C(=O)N(c1ccccc1C)CC(=O)N3 | 25.5 (≈ 72.6 µM)
77 | CCOc1ccc(C(=O)Nc2cccc3cccnc23)cc1 | 0.7 (≈ 2.39 µM)
78 | COc1ccccc1NC(=O)NC1(C)CCS(=O)(=O)C1 (stereo not drawn) | > 44.8
79 | O=C(/C=C/c1ccc([N+](=O)[O-])cc1)/C=C/c1ccco1 | 3.1 (≈ 11.5 µM)
80 | Cc1nc2cc(NC(=O)N3CCCC3)ccc2n1C | 29.4 (≈ 114 µM)
81 | Cc1cc(C(C)(C)C)cc(C)c1CCNC(=O)c1ccc[n+]([O-])c1 | > 49
82 | O=S(=O)(c1cc(F)ccc1F)N1CCN(c2ccccn2)CC1 | 18.9 (≈ 55.7 µM)
83 | CC1(C)Cc2c(C#N)c(N3CCNCC3)nc(-c3ccco3)c2CS1 | 21.5 (≈ 60.7 µM)
84 | Cc1c(C(=O)N2CCN(S(=O)(=O)c3ccccc3)CC2)oc2ccc(Br)cc12 | 6.8 (≈ 14.7 µM)
85 | COc1ccc(NS(=O)(=O)c2cn(C)c(=O)n(C)c2=O)c(OC)c1 | > 53.3
86 | CC(C)(C)C(=O)N1CCN(c2ncccc2C(F)(F)F)CC1 | > 47.3
87 | Cc1cc(C)cc(NC(=O)CCc2ccc(C)o2)c1 | 34.6 (≈ 134 µM)
88 | Cc1cc(=O)[nH]c(SCC(=O)NC(C)C2CC3CCC2C3)c1C#N (stereo not drawn) | > 51.8
89 | COC(=O)c1sc(-c2ccccc2)cc1NC(C)=O | 1.7 (≈ 6.17 µM)
90 | CN1CCC(NC(=O)c2ccncc2)CC1 | 29.4 (≈ 134 µM)
91 | COc1ccc(OC)c(COC(=O)c2cccc(S(=O)(=O)N3CCCCC3)c2)c1 | 10.1 (≈ 24.1 µM)
92 | CCC(C)(C)NC(=O)/C=C/c1ccccc1[N+](=O)[O-] | 31.4 (≈ 120 µM)
93 | Cc1ccc(-c2nc(-c3cccnc3)sc2CC(=O)O)cc1 | 42.4 (≈ 137 µM)
94 | CCOC(=O)c1ccccc1NC(=O)C1CSC2(C)CCC(=O)N12 (stereo not drawn) | > 52.3
95 | CCOc1ccc(CN2CCSCC2)cc1 | 18.5 (≈ 77.9 µM)
96 | Cc1ccc(NC(=O)CCC2CC(C)(C)OC2=O)cc1 (stereo not drawn) | > 41.3

Row | Compound | solubility kinetic [µg/mL]
97 | Cn1ccnc1SCC(=O)Nc1ccc2c(c1)OCO2 | > 43.7
98 | CC(=O)Nc1ccc2nc(-c3ccco3)[nH]c2c1 | > 36.2
99 | O=C(CCn1c(=O)sc2ccccc21)NC1CCCCC1 | 27.4 (≈ 90 µM)
100 | Cc1ccc(N(CC(=O)NC2CC2)S(=O)(=O)c2ccccc2)c(C)c1 | > 53.8
101 | Cc1c(C)c2ccc(OCC(=O)N3CCN(Cc4ccccc4)CC3)cc2oc1=O.Cl | 2.5
102 | COc1cccc(OC)c1C(=O)OCC(=O)N1CCC(Cc2ccccc2)CC1 | 5.2 (≈ 13.1 µM)
103 | Cn1c(=O)n(Cc2ccccc2Cl)c(=O)c2c1[nH]c(=S)n2C | > 50.5
104 | CN(CC(=O)Nc1ccc2c(c1)OCO2)CC(=O)Nc1ccc(F)c(F)c1F | > 59.3
105 | Cc1nn(C)c(Oc2ccccc2)c1CCNC(=O)CCl | > 46.2
106 | CCOc1ccc(-c2c(C)n([O-])c3c([n+]2=O)CCCCC3)cc1 | > 47.2
107 | CCOc1cccc(NC(=O)/C(C#N)=C\c2cccnc2)c1 | 30.4 (≈ 104 µM)
108 | O=C(Nc1cccnc1)C12CC3CC(CC(C3)C1)C2 | > 38.5
109 | Cc1nn(C)c(=O)n1-c1ccccc1 | > 28.4
110 | CNC(=O)c1sc(NCc2ccccc2OC)nc1C | > 43.7
111 | O=S(=O)(Cc1cc(-c2ccccc2)no1)c1ccccc1 | 3.4 (≈ 11.4 µM)
112 | Cc1ccc2c(c1)sc(C)[n+]2CCCS(=O)(=O)[O-] | > 42.8
113 | Cc1ccc2cc(C)c(N3CCN(c4ccc(F)cc4)CC3)nc2c1 | < 0.2
114 | O=C(/C=C/c1ccc(S(=O)(=O)N2CCOCC2)cc1)Nc1cc(F)ccc1F | 5.5 (≈ 13.5 µM)
115 | Cc1ccc(-c2noc(CN(C)C(=O)c3ccoc3C)n2)cc1 | 34.4 (≈ 110 µM)
116 | CC(=O)N1CCN(Cc2ccc(Cl)nc2)CC1 | > 38.1
117 | Cc1ccc(OC(C)C(=O)N2CC(=O)Nc3ccccc32)cc1 (stereo not drawn) | > 46.6
118 | Cc1ccc(NC(=O)c2cc(CC(C)C)nc3ccccc23)cc1 | 0.6 (≈ 1.88 µM)
